Measurements published in PMC7785352, “Antioxidant and α-Glucosidase Inhibitory Activities Guided Isolation and Identification of Components from Mango Seed Kernel” (Oxidative Medicine and Cellular Longevity, 2020).
Marks after values point to notes of the source that are not given here.

What was measured:
[1] = DPPH radical scavenging activity assay; settings: mean ± SD; for IC50: isolated compounds, test concentrations 15.625 to 500 μM
Description: The DPPH radical scavenging activity assay was determined according to the reported method with minor modifications. Briefly, extract and four fractions were dissolved in methyl alcohol at concentrations ranging from 62.5 to 1000 μg/mL, which were prepared to mix with a methyl alcohol solution of DPPH (0.2 mM, 100 μL) on a 96-well plate. After that, shaken gently and stood at room temperature for 30 min, the optical density (OD) 517 nm in each well were determined by a microplate reader. Triplicates of each sample were run, and the mean values were calculated. Ascorbic acid was chosen as positive control. The percentage inhibition (%) for each sample was calculated by the following formula: (1) Inhibition %=1−Abssamples−Abscontrol/Absblank ×100%.
DPPH solution was replaced by a methanol solution, which was used as control, and samples were replaced by the methanol solution as the black. All the results were expressed as means ± standard deviation (SD).
The antioxidant and α-glucosidase inhibitory activities of each isolated compound at concentrations ranging from 15.625 to 500 μM (DPPH) and from 125 to 2000 μM (α-glucosidase inhibitory), respectively, were determined using the methods described in Section 2.3.

[2] = tested on: α-Glucosidase from Baker's yeast; assay: α-Glucosidase inhibitory assay (p-NPG substrate, 96-well plate); type: biochemical; settings: isolated compounds; for IC50: test concentrations 125 to 2000 μM, mean ± SD
Description: The α-glucosidase inhibitory assay was performed on a 96-well plate by using a microplate reader according to the published method with minor modifications. […] […] After 5 min incubation at 37°C, 20 μL of 4-pNPG (p-nitrophenyl-α-D-glucopyranoside) (2.5 mM) was added and incubated for 15 min; then, 80 μL of Na2CO3 (0.2 M) was added to stop the reaction. The optical density (OD) values were determined using a microplate reader at 405 nm. Triplicates of each sample were run, and the mean values were calculated. […] The IC50 was calculated by using SPSS software.

α-glucosidase = assay: Inhibitory kinetic analysis (Lineweaver-Burk and Dixon plots); type: biochemical, Baker's yeast; settings: substrate 0.8-5.0 mM, enzyme 1.3 U/mL; for Ki: determined by Dixon plots; for α-Glucosidase inhibitory Inhibition mode: determined by Lineweaver-Burk plots
Description: The kinetic mechanisms of active compounds 1 and 2 towards α-glucosidase were determined by the graphical views of Dixon and Lineweaver-Burk plots. The concentration ranges for the substrates were 0.8-5.0 mM. The concentration of the enzyme was kept constant at 1.3 U/mL. Lineweaver-Burk plots were established to evaluate the type of inhibition. Dixon plots were used to calculate inhibitory constant (Ki) values of the tested compounds. Each kinetic analysis was implemented in triplicate from which mean Ki values.

| SMILES | IC50 [1] [µM] | also measured |
| --- | --- | --- |
| O=C(OCC(O)CO)c1cc(O)c(O)c(O)c1 (stereo not shown) [Compound 9, 1-Glycerol gallate] | > 500 | α-glucosidase inhibitory activity (in words) [2]: no inhibitory activity |
| O=C1O[C@H]([C@@H](O)CO)C(O)=C1O [Ascorbic acid, reference compound] | – | DPPH assay IC50 ([1]; extract and fractions, test concentrations 62.5 to 1000 μg/mL, n = 3): 9.37 ± 0.84^e μg/mL |
| O=C(O[C@@H]1O[C@H](CO)[C@@H](O)[C@H](O)[C@H]1O)c1cc(O)c(O)c(O)c1 [Compound 4, 1-O-(3,4,5-Trihydroxybenzoyl)-β-D-glucoside] | 52.8 ± 0.93 | – |
| CCOC(=O)c1cc(O)c(O)c(O)c1 [Compound 10, Ethyl gallate] | 38 ± 1.94 | α-glucosidase inhibitory activity (in words) [2]: no inhibitory activity |
| O=C(O)c1ccc(O)c(O)c1 [Compound 7, 3,4-Dihydroxybenzoic acid] | 38.2 ± 1.03 | IC50 [2]: 425 ± 31.5 µM |
| O=c1c(O)c(-c2ccc(O)c(O)c2)oc2cc(O)cc(O)c12 [Compound 13, Quercetin] | 60 ± 0.82 | IC50 [2]: 138 ± 7.07 µM |
| COc1cc(/C=C/C(=O)O)ccc1O [Compound 11, Ferulic acid] | 95 ± 2.41 | – |
| O=C(O)c1cc(O)c(O)c(O)c1 [Compound 6, Gallic acid] | 37.8 ± 2.52 | IC50 [2]: 313 ± 3.71 µM |
| Oc1cc(O)c2c(c1)O[C@H](c1ccc(O)c(O)c1)[C@H](O)C2 [Compound 16, Epicatechin] | 40.1 ± 0.82 | – |

More lines, main results first:

| IC50 [1] [µM] | SMILES | also measured |
| --- | --- | --- |
| 2.93 ± 1.06 | O=C(OC[C@H]1O[C@@H](OC(=O)c2cc(O)c(O)c(O)c2)[C@H](OC(=O)c2cc(O)c(O)c(O)c2)[C@@H](OC(=O)c2cc(O)c(O)c(O)c2)[C@@H]1OC(=O)c1cc(O)c(O)c(O)c1)c1cc(O)c(O)c(O)c1 [Compound 1, 1,2,3,4,6-Penta-O-galloyl-β-D-glucoside] | Ki (α-glucosidase): 0.73295 ± 0.00022 µM; α-Glucosidase inhibitory Inhibition mode (α-glucosidase): Noncompetitive |
| 23.7 ± 0.52 | O=C(OC[C@H]1O[C@@H](OC(=O)c2cc(O)c(O)c(O)c2)[C@H](OC(=O)c2cc(O)c(O)c(O)c2)[C@@H](OC(=O)c2cc(O)c(O)c(O)c2)[C@@H]1O)c1cc(O)c(O)c(O)c1 [Compound 3, 1,2,3,6-Tetra-O-galloyl-β-D-glucoside] | IC50 [2]: 243.3 ± 1.43 µM |
| 22.3 ± 0.74 | O=C(OCC1OC(OC(=O)c2cc(O)c(O)c(O)c2)C(OC(=O)c2cc(O)c(O)c(O)c2)C(OC(=O)c2cc(O)c(O)c(O)c2)C1OC(=O)c1cc(O)c(O)c(O)c1)c1cc(O)c(O)c(O)c1 [Compound 2, 1,2,3,4,6-Penta-O-galloyl-α-D-glucoside] | Ki (α-glucosidase): 0.09837 ± 0.00031 µM; α-Glucosidase inhibitory Inhibition mode (α-glucosidase): Competitive |
| 36.91 ± 0.3 | O=C(O)/C=C/c1ccc(O)c(O)c1 [Compound 12, Caffeic acid] | – |
| 32.3 ± 0.48 | COC(=O)c1cc(O)c(O)c(O)c1 [Compound 5, Methyl galate] | α-glucosidase inhibitory activity (in words) [2]: no inhibitory activity |
